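Cultured in 96-well plates, cells were exposed to test compound for 48 hours across five concentrations. GI50: concentration for 50% inhibition of growth. Definition used: TGI = concentration required for complete inhibition of growth.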
Assays:
Assay in all cases: NCI-60 cell line screen, 48 h
KM12 colon = tested on: KM12 colon
HT29 colon = tested on: HT29 colon
NCI-H23 lung = tested on: NCI-H23 lung
SNB-75 CNS = tested on: SNB-75 CNS
MALME-3M melanoma = tested on: MALME-3M melanoma
SN12C renal = tested on: SN12C renal
SK-MEL-5 melanoma = tested on: SK-MEL-5 melanoma
HS 578T breast = tested on: HS 578T breast
BT-549 breast = tested on: BT-549 breast
T-47D breast = tested on: T-47D breast

SMILES: COC(=O)C1=CC2C(=O)OC1C1C(=O)NC(=O)C21 (configuration not stated)
- TGI (KM12 colon): > 100 µM
- TGI (HT29 colon): > 100 µM
- TGI (NCI-H23 lung): > 100 µM
- TGI (SNB-75 CNS): > 100 µM
- TGI (MALME-3M melanoma): > 100 µM
- TGI (SN12C renal): > 100 µM
- TGI (SK-MEL-5 melanoma): > 100 µM

SMILES: CC1(C)c2ccccc2N2C(c3ccccc3)=NOC21C (configuration not stated)
- TGI (KM12 colon): > 100 µM
- TGI (HT29 colon): > 100 µM
- TGI (NCI-H23 lung): > 100 µM
- TGI (SNB-75 CNS): > 100 µM
- TGI (MALME-3M melanoma): > 100 µM
- TGI (SN12C renal): > 100 µM
- TGI (SK-MEL-5 melanoma): > 100 µM

SMILES: CC1OC(n2cc(C(F)(F)F)c(=O)[nH]c2=O)C=CC1=O (configuration not stated)
- TGI (KM12 colon): 38.1 µM
- TGI (HT29 colon): 54.6 µM
- TGI (NCI-H23 lung): 33 µM
- TGI (SNB-75 CNS): 32.8 µM
- TGI (MALME-3M melanoma): 34.2 µM
- TGI (SN12C renal): 57.8 µM

SMILES: N#C/C(=C\c1c(O)cc(O)cc1O)C(N)=O
- TGI (KM12 colon): > 100 µM
- TGI (HT29 colon): > 100 µM
- TGI (NCI-H23 lung): > 100 µM
- TGI (SNB-75 CNS): > 100 µM
- TGI (MALME-3M melanoma): > 100 µM
- TGI (SN12C renal): > 100 µM
- TGI (SK-MEL-5 melanoma): > 100 µM

SMILES: COc1cccc(Nc2ncnc3cc(NC(=O)CCl)ccc23)c1
- GI50 (KM12 colon): 1.36 µM
- TGI (KM12 colon): 2.9 µM
- GI50 (HT29 colon): 0.499 µM
- TGI (HT29 colon): 1.85 µM
- GI50 (HS 578T breast): 1.84 µM
- TGI (HS 578T breast): 8.15 µM
- GI50 (NCI-H23 lung): 1.61 µM
- TGI (NCI-H23 lung): 3.92 µM
- GI50 (SNB-75 CNS): 0.379 µM
- TGI (SNB-75 CNS): 2.28 µM
- GI50 (MALME-3M melanoma): 1.07 µM
- TGI (MALME-3M melanoma): 2.51 µM
- GI50 (SN12C renal): 1.15 µM
- TGI (SN12C renal): 2.44 µM
- GI50 (SK-MEL-5 melanoma): 1.25 µM
- TGI (SK-MEL-5 melanoma): 2.55 µM
- GI50 (BT-549 breast): 1.23 µM
- TGI (BT-549 breast): 2.69 µM

SMILES: O=C(Oc1ccccc1)N(c1ccccc1)c1ccccc1
- GI50 (KM12 colon): 28.7 µM
- TGI (KM12 colon): > 100 µM
- GI50 (HT29 colon): 36.9 µM
- TGI (HT29 colon): > 100 µM
- GI50 (NCI-H23 lung): 21.9 µM
- TGI (NCI-H23 lung): 84.7 µM
- GI50 (T-47D breast): 24.9 µM
- TGI (T-47D breast): > 100 µM
- GI50 (SNB-75 CNS): 19.6 µM
- TGI (SNB-75 CNS): 52.5 µM
- GI50 (MALME-3M melanoma): 25 µM
- TGI (MALME-3M melanoma): 91.4 µM
- GI50 (SN12C renal): 27.7 µM
- TGI (SN12C renal): > 100 µM
- GI50 (SK-MEL-5 melanoma): 15 µM
- TGI (SK-MEL-5 melanoma): 29.9 µM
- GI50 (BT-549 breast): 18.2 µM
- TGI (BT-549 breast): 41.2 µM

SMILES: COc1ccc(Cn2cc(COc3cc(/C=C/C(=O)c4cc(OC)c(OC)c(OC)c4)ccc3OC)nn2)cc1
- GI50 (KM12 colon): 3.23 µM
- TGI (KM12 colon): > 100 µM
- GI50 (HT29 colon): 3.65 µM
- TGI (HT29 colon): 9.68 µM
- GI50 (HS 578T breast): 7.88 µM
- TGI (HS 578T breast): > 100 µM
- GI50 (NCI-H23 lung): 31.3 µM
- TGI (NCI-H23 lung): > 100 µM
- GI50 (T-47D breast): 3.41 µM
- TGI (T-47D breast): > 100 µM
- GI50 (MALME-3M melanoma): 25.7 µM
- TGI (MALME-3M melanoma): > 100 µM
- GI50 (SN12C renal): 3.62 µM
- TGI (SN12C renal): > 100 µM
- GI50 (SK-MEL-5 melanoma): 3.66 µM
- TGI (SK-MEL-5 melanoma): 20.5 µM
- GI50 (BT-549 breast): 3.33 µM
- TGI (BT-549 breast): > 100 µM

SMILES: c1ccc(C2=NOC3C4CCC(C4)C23)cc1 (configuration not stated)
- TGI (KM12 colon): > 100 µM
- TGI (HT29 colon): > 100 µM
- TGI (NCI-H23 lung): > 100 µM
- TGI (SNB-75 CNS): > 100 µM
- TGI (MALME-3M melanoma): > 100 µM
- TGI (SN12C renal): > 100 µM
- TGI (SK-MEL-5 melanoma): > 100 µM

SMILES: CN(c1ccccc1)c1cc2ccccc2nn1
- TGI (KM12 colon): > 100 µM
- TGI (HT29 colon): > 100 µM
- TGI (NCI-H23 lung): > 100 µM
- TGI (SNB-75 CNS): > 100 µM
- TGI (MALME-3M melanoma): > 100 µM
- TGI (SN12C renal): > 100 µM
- TGI (SK-MEL-5 melanoma): > 100 µM

SMILES: O=c1nc2sc3ccccc3c(=O)n2[nH]1
- TGI (KM12 colon): > 100 µM
- TGI (HT29 colon): > 100 µM
- TGI (NCI-H23 lung): > 100 µM
- TGI (SNB-75 CNS): > 100 µM
- TGI (MALME-3M melanoma): > 100 µM
- TGI (SN12C renal): > 100 µM
- TGI (SK-MEL-5 melanoma): > 100 µM

Source: PubChem BioAssay (NCI)
